The values below come from PMC7534897 (Bioorganic & Medicinal Chemistry Letters, 2020).

Assay [1] has as its system EV-71A. As to conditions: cited from earlier work.
The test system of assay [2] is EV-A71. The note with it: read-out: EC50, EV-A71; cited from earlier work.
Assay [3] deals with Enterovirus 71 (Tainin/4643/98 strain). As to the kind of experiment: Inhibition of EV-A71 replication in Vero 76 cells. It counts as cell-based, Enterovirus A71. As to conditions: for EC50: Enterovirus A.
Assay [4] concerns the target A1 adenosine receptor. The note with it: cited from earlier work.
The subject of assay [5] is coxsackie virus B3, enterovirus 68 and poliovirus 1. As to the kind of experiment: organism not typed. As to conditions: read-out: EC50 values, range over three viruses. It counts as cell-based.
Assay [6] deals with A3 adenosine receptor. The note with it: read-out: Ki, A3 adenosine receptor; binds as an agonist; cited from earlier work.
In assay [7] the test system is Enterovirus 68 (US/KY/14–18953 strain). As to the kind of experiment: Inhibition of enterovirus 68 in RD cells. It counts as cell-based. The note with it: Enterovirus D, read-out: EC50/90 values against enterovirus 68, range.

Values after ≈ are worked out from the molar mass of the structure shown. Like-named read-outs stand apart in the source and are kept apart here. Where only a bound is given, the exact number is not on record here.

The IC50 is the concentration needed to halve the response being measured. Consider `NC(=O)c1ncn([C@@H]2O[C@H](CO)[C@@H](O)[C@H]2O)n1` [Compound 5, ribavirin], for which, in assay [1], the “IC50, EV-71A viral yield in infected cells” value is on record as 65 µg/mL (≈ 266 µM). Further, the IC50 in assay [1] (read-out: IC50, EV-71A viral yield in infected cells) was 266 µM.

Turning to `OC[C@H]1O[C@@H](n2cnc3c(NCc4ccccc4)ncnc32)[C@H](O)[C@@H]1O` [Compound 6, N ^6-benzyl-adenosine], the EC50 in assay [2] was 5 µM.

As to `CCOC(=O)c1ccc(OCCC2CCN(c3ccc(C)nn3)CC2)cc1` [Compound 8, Pirodavir, reference compound], the EC50 in assay [3] (Vero 76, read-out: EC50 values of pirodavir, range (neutral red)) fell in the range of 0.056 to 0.22 µg/mL; in assay [3] (Vero 76, read-out: EC50 values of pirodavir, range (visual)), 0.036 to 0.32 µg/mL.

On to `NC(=O)c1ncn([C@H]2[C@H](O)[C@H](O)[C@]3(CO)C[C@H]23)n1` [Compound 9], for which, in assay [3] (at 50 µM, higher concentrations not tested), the “Activity against EV-A71 in words” value is “inactive”.

For the molecule `OC[C@H]1O[C@@H](n2cnc3c(NC(C4CC4)C4CC4)ncnc32)[C@H](O)[C@@H]1O` [Compound 10], the “Activity against EV-A71 in words” value in assay [3] is “inactive”.

Usually Ki stands for a dissociation constant, usually derived from enzyme kinetics or from competition with a known ligand. As for `OC[C@H]1O[C@@H](n2cnc3c(NC(C4CCC4)C4CCC4)ncnc32)[C@H](O)[C@@H]1O` [Compound 11], the “Activity against EV-A71 in words” value in assay [3] is “inactive”. The Ki in assay [4] (read-out: Ki, A1 receptor) is less than 0.01 µM.

As to `OC[C@H]1O[C@@H](n2cnc3c(NC(C4CCC4)C4CCC4)nc(Cl)nc32)[C@H](O)[C@@H]1O` [Compound 12], the Ki in assay [4] (read-out: Ki, A1 receptor) was less than 0.01 µM.

Consider `OC[C@@]12C[C@@H]1[C@@H](n1cnc3c(NC(C4CC4)C4CC4)nc(Cl)nc31)[C@H](O)[C@@H]2O` [Compound 16], for which, in assay [3], the “Activity against EV-A71 in words” value is given as “Intermediate potency”.

Take `CC(C)[C@@H](Nc1nc(Cl)nc2c1ncn2[C@H]1[C@H](O)[C@H](O)[C@]2(CO)C[C@H]12)C1CC1` [Compound 17]: in assay [5], the EC50 was in the range of 16 to 32 µM. For the same molecule, the Ki is 0.103 µM in assay [4] (read-out: Ki, A1 adenosine receptor, binds as an agonist) and 1.24 µM in assay [6].

Turning to `CSc1nc(N[C@H](C(C)C)C2CC2)c2ncn([C@H]3[C@H](O)[C@H](O)[C@]4(CO)C[C@H]34)c2n1` [Compound 20, (1R,2R,3S,4R,5S)-4-(6-((1-Cyclopropyl-2-methylpropyl)amino)-2-(methylthio)-9H-purin-9-yl)-1-(hydroxymethyl)bicyclo[3.1.0]hexane-2,3-diol], the EC50 in assay [3] (Vero 76, read-out: Visual EC50) is greater than 100 µM.

In the case of `CC(C)[C@H](Nc1nc(Cl)nc2c1ncn2[C@H]1[C@H](O)[C@H](O)[C@]2(CO)C[C@H]12)C1CC1` [Compound 21], in assay [3], the “Activity against EV-A71 in words” value was “Intermediate potency”.

With `CC[C@@H](Nc1nc(SC)nc2c1ccn2[C@H]1[C@H](O)[C@H](O)[C@]2(CO)C[C@H]12)C1CC1` [Compound 26], in assay [3] (Vero 76, read-out: Visual EC50), the EC50 amounted to 16 µM.

Consider `CC[C@H](Nc1nc(Cl)nc2c1ncn2[C@H]1[C@H](O)[C@H](O)[C@]2(CO)C[C@H]12)C1CC1` [Compound 27], for which the EC50 in assay [3] (Vero 76, read-out: Visual EC50) is 16 µM.

For the molecule `OC[C@@]12C[C@@H]1[C@@H](n1cnc3c(NC(C4CCC4)C4CCC4)nc(Cl)nc31)[C@H](O)[C@@H]2O` [Compound 30], the “Activity against EV-A71 in words” value in assay [3] is recorded as “prevented inhibition”.

Turning to `O[C@@H]1[C@H](O)[C@@H]2C[C@@H]2[C@H]1n1cnc2c(NC(C3CC3)C3CC3)nc(Cl)nc21` [Compound 31], the “SI (selectivity index) at EV-A71” value in assay [3] (visual and neutral red methods) is reported as no less than 10. Moreover, the EC50 in assay [7] fell in the range of 8 to 16 µM.

For the molecule `O[C@@H]1[C@H](O)[C@@H]2C[C@@H]2[C@H]1n1cnc2c(NC(C3CCC3)C3CCC3)nc(Cl)nc21` [Compound 42], the EC50 in assay [3] (Vero 76, read-out: Visual EC50) was greater than 16 µM.

`CCOC(=O)[C@@]12C[C@@H]1[C@@H](n1cnc3c(NC(C4CC4)C4CC4)nc(Cl)nc31)[C@H](O)[C@@H]2O` [Compound 44]: the “Activity against EV-A71 in words” value in assay [3] is “inactive”.

As for `CC(C)[C@@H](Nc1nc(Cl)nc2c1ncn2[C@H]1[C@H](O)[C@H](O)[C@]2(CF)C[C@H]12)C1CC1` [Compound 48, (1S,2R,3S,4R,5S)-4-(2-Chloro-6-((1-cyclopropyl-2-methylpropyl)amino)-9H-purin-9-yl)-1-(fluoromethyl)bicyclo[3.1.0]hexane-2,3-diol], the “Activity against EV-A71 in words” value in assay [3] was “intermediate potency”. For the same molecule, the EC50 in assay [3] (Vero 76, read-out: Visual EC50) is 3.6 µM; in assay [7], 8 to 16 µM.

With `CC(C)[C@@H](Nc1nc(Cl)nc2c1ncn2[C@H]1[C@H](O)[C@H](O)[C@]2(CCl)C[C@H]12)C1CC1` [Compound 49, (1S,2R,3S,4R,5S)-4-(2-Chloro-6-((1-cyclopropyl-2-methylpropyl)amino)-9H-purin-9-yl)-1-(chloromethyl)bicyclo[3.1.0]hexane-2,3-diol], the “Activity against EV-A71 in words” value in assay [3] is “intermediate potency”.

Consider `CSC[C@@]12C[C@@H]1[C@@H](n1cnc3c(N[C@H](C(C)C)C4CC4)nc(Cl)nc31)[C@H](O)[C@@H]2O` [Compound 50, (1S,2R,3S,4R,5S)-4-(2-Chloro-6-((1-cyclopropyl-2-methylpropyl)amino)-9H-purin-9-yl)-1-((methylthio)methyl)bicyclo[3.1.0]hexane-2,3-diol], for which the “Activity against EV-A71 in words” value in assay [3] is recorded as “reduced inhibition”.

For `CC(C)[C@@H](Nc1nc(Cl)nc2c1ncn2[C@H]1[C@H](O)[C@H](O)[C@]2(CN=[N+]=[N-])C[C@H]12)C1CC1` [Compound 51, (1R,2R,3S,4R,5S)-1-(Azidomethyl)-4-(2-chloro-6-((1-cyclopropyl-2-methylpropyl)amino)-9H-purin-9-yl)bicyclo[3.1.0]hexane-2,3-diol], the “Activity against EV-A71 in words” value in assay [3] is “intermediate potency”.

Consider `CC(C)[C@@H](Nc1nc(Cl)nc2c1ncn2[C@H]1[C@H](O)[C@H](O)[C@]2(CN)C[C@H]12)C1CC1` [Compound 52, (1R,2R,3S,4R,5S)-1-(Aminomethyl)-4-(2-chloro-6-((1-cyclopropyl-2-methylpropyl)amino)-9H-purin-9-yl)bicyclo[3.1.0]hexane-2,3-diol], for which, in assay [3], the “Activity against EV-A71 in words” value was “reduced inhibition”.
